The NIST ThermoML archive (doi:10.1016/j.jct.2017.10.004)

Assay: xn = mol fraction of the nth substance listed
Conditions: 100 kPa, Liquid; for electrical conductivity: Alternating current cell with electrodes; for viscosity: Capillary tube (Ostwald / Ubbelohde) method; for mass density: Vibrating tube method

Cn1cc[n+](C)c1.O=S(=O)([N-]S(=O)(=O)C(F)(F)F)C(F)(F)F [1,3-dimethylimidazolium bis((trifluoromethyl)sulfonyl)amide] + O=C1CCCO1
Conditions	electrical conductivity [S/m]	mass density [kg/m3]	viscosity [mPa·s]
298.15 K, x1 = 0.05124	1.13	1190.03	2.27
298.15 K, x1 = 0.09948	1.58	1240.94	2.86
298.15 K, x1 = 0.1551	1.75	1289.73	3.61
298.15 K, x1 = 0.2007	1.77	1323.77	4.44
298.15 K, x1 = 0.2991	1.73	1383.3	6.56
298.15 K, x1 = 0.4002	1.6	1430.37	9.39
298.15 K, x1 = 0.4998	1.47	1467.09	12.79
298.15 K, x1 = 0.6127	1.29	1500.46	17.69
298.15 K, x1 = 0.7009	1.17	1522	22.05
298.15 K, x1 = 0.8002	1.05	1542.63	27.52
298.15 K, x1 = 0.8997	0.905	1560.16	33.41
298.15 K, x1 = 1	0.774	1575.42	39.43
303.15 K, x1 = 0.05124	1.22	1185.01	2.08
303.15 K, x1 = 0.09948	1.72	1235.89	2.61
303.15 K, x1 = 0.1551	1.9	1284.67	3.24
303.15 K, x1 = 0.2007	1.94	1318.66	4
303.15 K, x1 = 0.2991	1.9	1378.16	5.81
303.15 K, x1 = 0.4002	1.76	1425.2	8.35
303.15 K, x1 = 0.4998	1.63	1461.93	11.04
303.15 K, x1 = 0.6127	1.45	1495.28	15.09
303.15 K, x1 = 0.7009	1.32	1516.83	18.61
303.15 K, x1 = 0.8002	1.19	1537.44	22.9
303.15 K, x1 = 0.8997	1.04	1554.97	27.66
303.15 K, x1 = 1	0.915	1570.25	32.51
308.15 K, x1 = 0.05124	1.32	1180.03	1.85
308.15 K, x1 = 0.09948	1.85	1230.85	2.39
308.15 K, x1 = 0.1551	2.06	1279.57	3.02
308.15 K, x1 = 0.2007	2.09	1313.53	3.62
308.15 K, x1 = 0.2991	2.07	1372.98	5.23
308.15 K, x1 = 0.4002	1.93	1419.99	7.3
308.15 K, x1 = 0.4998	1.79	1456.71	9.7
308.15 K, x1 = 0.6127	1.61	1490.05	12.98
308.15 K, x1 = 0.7009	1.47	1511.6	16
308.15 K, x1 = 0.8002	1.34	1532.21	19.53
308.15 K, x1 = 0.8997	1.18	1549.75	23.46
308.15 K, x1 = 1	1.06	1565.01	27.47
313.15 K, x1 = 0.05124	1.4	1175.06	1.71
313.15 K, x1 = 0.09948	1.98	1225.8	2.2
313.15 K, x1 = 0.1551	2.19	1274.45	2.77
313.15 K, x1 = 0.2007	2.25	1308.37	3.3
313.15 K, x1 = 0.2991	2.23	1367.77	4.7
313.15 K, x1 = 0.4002	2.09	1414.76	6.5
313.15 K, x1 = 0.4998	1.95	1451.46	8.6
313.15 K, x1 = 0.6127	1.76	1484.8	11.46
313.15 K, x1 = 0.7009	1.61	1506.34	13.89
313.15 K, x1 = 0.8002	1.48	1526.95	16.86
313.15 K, x1 = 0.8997	1.32	1544.49	20.08
313.15 K, x1 = 1	1.2	1559.73	23.43
318.15 K, x1 = 0.05124	1.5	1170.08	1.62
318.15 K, x1 = 0.09948	2.12	1220.75	2.04
318.15 K, x1 = 0.1551	2.35	1269.35	2.57
318.15 K, x1 = 0.2007	2.42	1303.25	3.03
318.15 K, x1 = 0.2991	2.4	1362.59	4.27
318.15 K, x1 = 0.4002	2.25	1409.55	5.81
318.15 K, x1 = 0.4998	2.12	1446.23	7.64
318.15 K, x1 = 0.6127	1.92	1479.57	10.05
318.15 K, x1 = 0.7009	1.77	1501.11	12.18
318.15 K, x1 = 0.8002	1.65	1521.73	14.75
318.15 K, x1 = 0.8997	1.49	1539.27	17.45
318.15 K, x1 = 1	1.35	1554.49	20.25
323.15 K, x1 = 0.05124	1.59	1165.1	1.52
323.15 K, x1 = 0.09948	2.25	1215.71	1.89
323.15 K, x1 = 0.1551	2.51	1264.27	2.39
323.15 K, x1 = 0.2007	2.59	1298.14	2.79
323.15 K, x1 = 0.2991	2.59	1357.45	3.89
323.15 K, x1 = 0.4002	2.45	1404.4	5.3
323.15 K, x1 = 0.4998	2.31	1441.07	6.82
323.15 K, x1 = 0.6127	2.11	1474.41	8.92
323.15 K, x1 = 0.7009	1.96	1495.96	10.71
323.15 K, x1 = 0.8002	1.82	1516.59	12.9
323.15 K, x1 = 0.8997	1.67	1534.13	15.17
323.15 K, x1 = 1	1.51	1549.34	17.72
